Experiment: xn = mol fraction of the nth substance listed
Conditions: 100 kPa

CC[n+]1ccn(C)c1.O=S(=O)([N-]S(=O)(=O)C(F)(F)F)C(F)(F)F + CC[n+]1ccn(C)c1.F[B-](F)(F)F
Conditions	electrical conductivity [S/m]	viscosity [mPa·s]
243.15 K, x1 = 0.2	0.039	–
243.15 K, x1 = 0.3	0.043	–
243.15 K, x1 = 0.4	0.033	–
243.15 K, x1 = 0.5	0.038	–
243.15 K, x1 = 0.6	0.023	–
243.15 K, x1 = 0.7	0.046	–
243.15 K, x1 = 0.8	0.028	–
243.15 K, x1 = 1	0.011	–
248.15 K, x1 = 0.2	0.062	–
248.15 K, x1 = 0.3	0.068	–
248.15 K, x1 = 0.4	0.053	–
248.15 K, x1 = 0.5	0.06	–
248.15 K, x1 = 0.6	0.039	–
248.15 K, x1 = 0.7	0.072	–
248.15 K, x1 = 0.8	0.045	–
248.15 K, x1 = 1	0.019	–
253.15 K, x1 = 0.2	0.094	478
253.15 K, x1 = 0.3	0.102	485
253.15 K, x1 = 0.4	0.081	468
253.15 K, x1 = 0.5	0.09	460
253.15 K, x1 = 0.6	0.061	–
253.15 K, x1 = 0.7	0.107	435
253.15 K, x1 = 0.8	0.069	403
253.15 K, x1 = 1	0.031	350
258.15 K, x1 = 0.2	0.136	–
258.15 K, x1 = 0.3	0.146	–
258.15 K, x1 = 0.4	0.118	–
258.15 K, x1 = 0.5	0.13	–
258.15 K, x1 = 0.6	0.091	–
258.15 K, x1 = 0.7	0.152	–
258.15 K, x1 = 0.8	0.099	–
258.15 K, x1 = 1	0.047	–
263.15 K, x1 = 0.2	0.19	226
263.15 K, x1 = 0.3	0.202	229
263.15 K, x1 = 0.4	0.166	222
263.15 K, x1 = 0.5	0.18	220
263.15 K, x1 = 0.6	0.131	–
263.15 K, x1 = 0.7	0.208	208
263.15 K, x1 = 0.8	0.138	193
263.15 K, x1 = 1	0.07	173
268.15 K, x1 = 0.2	0.255	–
268.15 K, x1 = 0.3	0.27	–
268.15 K, x1 = 0.4	0.226	–
268.15 K, x1 = 0.5	0.242	–
268.15 K, x1 = 0.6	0.18	–
268.15 K, x1 = 0.7	0.276	–
268.15 K, x1 = 0.8	0.186	–
268.15 K, x1 = 1	0.099	–
273.15 K, x1 = 0.2	0.334	122
273.15 K, x1 = 0.3	0.351	124
273.15 K, x1 = 0.4	0.298	120
273.15 K, x1 = 0.5	0.316	120
273.15 K, x1 = 0.6	0.241	–
273.15 K, x1 = 0.7	0.357	114
273.15 K, x1 = 0.8	0.243	105
273.15 K, x1 = 1	0.135	96.5
278.15 K, x1 = 0.2	0.427	–
278.15 K, x1 = 0.3	0.445	–
278.15 K, x1 = 0.4	0.383	–
278.15 K, x1 = 0.5	0.403	–
278.15 K, x1 = 0.6	0.314	–
278.15 K, x1 = 0.7	0.452	–
278.15 K, x1 = 0.8	0.31	–
278.15 K, x1 = 1	0.179	–
283.15 K, x1 = 0.2	0.533	72.6
283.15 K, x1 = 0.3	0.553	74
283.15 K, x1 = 0.4	0.481	72.4
283.15 K, x1 = 0.5	0.503	72.1
283.15 K, x1 = 0.6	0.4	–
283.15 K, x1 = 0.7	0.559	69.1
283.15 K, x1 = 0.8	0.388	63.8
283.15 K, x1 = 1	0.232	59.3
288.15 K, x1 = 0.2	0.654	–
288.15 K, x1 = 0.3	0.674	–
288.15 K, x1 = 0.4	0.594	–
288.15 K, x1 = 0.5	0.617	–
288.15 K, x1 = 0.6	0.499	–
288.15 K, x1 = 0.7	0.68	–
288.15 K, x1 = 0.8	0.475	–
288.15 K, x1 = 1	0.294	–
293.15 K, x1 = 0.2	0.79	46.7
293.15 K, x1 = 0.3	0.81	47.9
293.15 K, x1 = 0.4	0.721	47
293.15 K, x1 = 0.5	0.744	47
293.15 K, x1 = 0.6	0.612	–
293.15 K, x1 = 0.7	0.815	45.3
293.15 K, x1 = 0.8	0.574	41.7
293.15 K, x1 = 1	0.365	39.2
298.15 K, x1 = 0.2	0.939	–
298.15 K, x1 = 0.3	0.958	–
298.15 K, x1 = 0.4	0.862	–
298.15 K, x1 = 0.5	0.885	–
298.15 K, x1 = 0.6	0.738	–
298.15 K, x1 = 0.7	0.963	–
298.15 K, x1 = 0.8	0.682	–
298.15 K, x1 = 1	0.447	–
303.15 K, x1 = 0.2	–	32
303.15 K, x1 = 0.3	–	33
303.15 K, x1 = 0.4	–	32.5
303.15 K, x1 = 0.5	–	32.5
303.15 K, x1 = 0.7	–	31.5
303.15 K, x1 = 0.8	–	29
303.15 K, x1 = 1	–	27.4
313.15 K, x1 = 0.2	–	23
313.15 K, x1 = 0.3	–	23.9
313.15 K, x1 = 0.4	–	23.6
313.15 K, x1 = 0.5	–	23.6
313.15 K, x1 = 0.7	–	23
313.15 K, x1 = 0.8	–	21.1
313.15 K, x1 = 1	–	20.1
323.15 K, x1 = 0.2	–	17.3
323.15 K, x1 = 0.3	–	18
323.15 K, x1 = 0.4	–	17.8
323.15 K, x1 = 0.5	–	17.8
323.15 K, x1 = 0.7	–	17.5
323.15 K, x1 = 0.8	–	16
323.15 K, x1 = 1	–	15.3
333.15 K, x1 = 0.2	–	13.4
333.15 K, x1 = 0.3	–	14.1
333.15 K, x1 = 0.4	–	13.9
333.15 K, x1 = 0.5	–	13.9
333.15 K, x1 = 0.7	–	13.8
333.15 K, x1 = 0.8	–	12.6
333.15 K, x1 = 1	–	12.1

— the CheMixHub ionic liquid set
